Measured values as given in patent publication US20240024320A1, “METHODS OF TREATING CANCER WITH A COMBINATION OF TUCATINIB AND AN ANTI-PD-1/ANTI-PD-L1 ANTIBODY” (Seagen Inc., priority 2020, published 2024).
Entries after “also recorded” stand apart in the source; their conditions may differ.

Columns and labels:
Fo5 tumors [1] = test: ex vivo FACS analysis of trastuzumab resistant Fo5 tumors; assay type: in vivo, FVB mice
Procedure: Tumors were harvested after 10-14 days of tucatinib 50 mg/kg treatment for Fo5 tumors and analyzed by FACS.
In vivo mouse studies. Female MMTV/Balb/c and FVB mice between 6 to 8 weeks of age were utilized for experiments. Treatment groups consisted of n=5 to 8 mice per group. […] Randomization and treatment commenced at approximately day 10 post-inoculation for the H2N113 tumor model with tumor sizes varying between 40 to 80 mm^3 and approximately day 14 for the Fo5 tumor model with tumor sizes varying between 60 to 120 mm^3. Tumor volumes were calculated using the equation […], where length and width refer to the larger and smaller dimensions collected at each measurement. […] Immunotherapy and isotype controls in both models were delivered on days 0, 4, 8, and 12. Tumor volumes were measured twice weekly with calipers. Survival was monitored and determined when the tumors reached an ethical limit of 1500 mm^3.
Flow cytometry analysis. For ex vivo studies, tumors were dissected, mechanically morcellated and passed through 70 μm filters. Cells were then resuspended in 30 μg/mL DNAse (Sigma-Aldrich) followed by Fc block (clone 2.4g2). Single cell suspensions were then stained with antibody cocktails for various TIL subsets. In some experiments, isolated cells were stimulated with phorbol 12-myristate 13-acetate (PMA; 50 ng/mL) and ionomycin (1 μg/mL; Sigma-Aldrich) in the presence of GolgiPlug (BD Biosciences; 1:1000) and GolgiStop (BD Biosciences; 1:1500) for 3 to 4 hours prior to flow cytometry analysis. Samples were analyzed by FACS with either Fixable Yellow or Zombie Red to discriminate viable and dead cells. BD fluorosphere counting beads were added to cocktails before running sample.

H2N113 tumors [2] = assay type: in vivo
Fo5 tumors [3] = test: ex vivo RNA sequencing / gene expression analysis of Fo5 tumors; assay type: in vivo, FVB mice
Procedure: The harvested tumors were then processed for stranded polyA RNA sequencing. […] Columns represent individual tumor samples and rows are individual genes.
Genomic analysis of mouse samples. RNA was extracted from Fo5 tumors treated in vivo with tucatinib at 50 mg/kg or vehicle (methyl cellulose, 0.5%) for 10 days using TRIzol® Reagent with the PureLink® RNA Mini Kit (Invitrogen™, Thermo Fisher Scientific, Waltham, MA, USA). Quantity and integrity of the total RNA was checked using a TapeStation 2200 (Agilent Technologies) and 500 ng used for library preparation according to standard protocols (NEBNext Ultra II Directional RNA Library Prep Kit for Illumina and NEBNext Poly(A) mRNA Magnetic Isolation Module, NEB). Indexed libraries were pooled and sequenced on a NextSeq500 flowcell (Illumina) to generate 25-50 million paired-end 75 bp reads per sample. Pre-processing and quantile normalization of microarray data was performed with the AFFY package in R. From normalized RNA intensities, unbiased, differential expression analysis and a short list of gene (FDR<0.05) was generated with the LIMMA package in R. Using the differentially expressed genes, pathway and molecular function enrichment analysis was performed in MetCore GeneCo. The GSEA software for gene set enrichment analysis was used with normalized RNA intensities. The false discovery rate was set at <10%. Top gene pathways were selected based on a P-value of <0.05 and a fold change of >1.5. All analyses were performed using R version 3.5.0. Gene sets for differential expression heat maps included interferon-γ 10-gene, preliminary expanded immune 28-gene, T cell inflamed 18-gene, and T-effector 6-gene signature sets, all of which have been associated with PD-1 or PD-L1 blockade amongst a range of tumor types, including breast cancer.

Fo5 tumors [4] = test: Fo5 trastuzumab-resistant HER2-positive murine tumor model: tumor growth and survival; assay type: in vivo, FVB mice
H2N113 tumors [5] = assay type: in vivo; remark: listed apart in the source
BT474 = test: growth inhibition assay (CellTitre-Glo), BT474; assay type: cell-based, human; settings: BT474, dose-dependent cell growth inhibition; FIG. 5A
SKBR3 = test: growth inhibition assay (CellTitre-Glo), SKBR3; assay type: cell-based, human; settings: SKBR3, dose-dependent cell growth inhibition; FIG. 5B
H2N113 = test: growth inhibition assay (CellTitre-Glo), H2N113; assay type: cell-based, murine; settings: H2N113, dose-dependent cell growth inhibition; FIG. 5C
HER2 signaling pathway [6] = test: Western blot for phosphor-HER2 and total HER2, Fo5 tumors; assay type: in vivo, FVB mice; settings: Fo5 tumors treated with tucatinib vs vehicle; FIG. 11A
HER2 signaling pathway [7] = test: Western blot for phosphor-HER2 and total HER2, H2N113 cells; assay type: cell-based, murine; settings: H2N113 cells treated with tucatinib vs vehicle; FIG. 11B
HER2 = HER2 (Homo sapiens, UniProt P04626); settings: cellular signaling assays; background statement; cited from earlier work
[8] = Example 4, after 10 days of tucatinib, FIG. 16A-16B
[9] = Example 4, after 10 days of tucatinib, FIG. 16C-16D
[10] = Example 4, after 14 days of tucatinib treatment
[11] = Example 4, tucatinib treated tumors
[12] = tucatinib 100 mg/kg orally once daily, 14 days, FIG. 2L

Sequence of HER2 (P04626 23-1255): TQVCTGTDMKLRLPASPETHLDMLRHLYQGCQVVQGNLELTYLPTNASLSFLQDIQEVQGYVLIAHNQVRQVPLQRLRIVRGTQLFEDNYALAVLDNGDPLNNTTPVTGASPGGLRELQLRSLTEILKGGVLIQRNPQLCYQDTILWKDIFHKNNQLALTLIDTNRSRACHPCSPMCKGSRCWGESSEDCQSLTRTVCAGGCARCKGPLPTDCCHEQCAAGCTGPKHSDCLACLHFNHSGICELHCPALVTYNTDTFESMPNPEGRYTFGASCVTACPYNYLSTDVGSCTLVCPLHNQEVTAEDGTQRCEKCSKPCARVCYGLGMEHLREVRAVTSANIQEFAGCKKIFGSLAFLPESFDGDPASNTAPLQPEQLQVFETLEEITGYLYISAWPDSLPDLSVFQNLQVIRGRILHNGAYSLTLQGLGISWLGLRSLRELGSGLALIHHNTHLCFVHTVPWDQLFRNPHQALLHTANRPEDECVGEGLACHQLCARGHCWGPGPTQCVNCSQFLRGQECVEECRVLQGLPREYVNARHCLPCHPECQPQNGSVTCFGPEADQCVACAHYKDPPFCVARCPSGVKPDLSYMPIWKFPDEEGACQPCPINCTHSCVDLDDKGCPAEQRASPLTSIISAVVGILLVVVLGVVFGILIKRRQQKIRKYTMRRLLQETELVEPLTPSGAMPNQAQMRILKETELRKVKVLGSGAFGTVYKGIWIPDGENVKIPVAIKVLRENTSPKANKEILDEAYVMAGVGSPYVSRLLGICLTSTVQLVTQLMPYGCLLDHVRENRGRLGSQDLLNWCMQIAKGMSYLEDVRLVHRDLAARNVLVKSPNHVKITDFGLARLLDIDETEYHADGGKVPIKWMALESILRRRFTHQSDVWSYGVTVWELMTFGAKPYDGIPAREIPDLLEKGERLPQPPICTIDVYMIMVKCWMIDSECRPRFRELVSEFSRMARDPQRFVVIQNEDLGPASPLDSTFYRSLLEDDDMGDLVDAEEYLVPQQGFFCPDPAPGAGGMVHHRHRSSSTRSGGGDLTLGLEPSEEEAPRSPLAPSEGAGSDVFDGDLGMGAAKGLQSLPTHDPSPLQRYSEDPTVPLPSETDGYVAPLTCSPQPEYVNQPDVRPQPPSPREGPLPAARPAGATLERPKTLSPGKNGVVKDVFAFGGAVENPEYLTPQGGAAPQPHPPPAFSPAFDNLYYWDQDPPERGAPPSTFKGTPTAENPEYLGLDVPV

## Cc1cc(Nc2ncnc3ccc(NC4=NC(C)(C)CO4)cc23)ccc1Oc1ccn2ncnc2c1 [tucatinib, N^4-(4-([1,2,4]triazolo[1,5-a]pyridin-7-yloxy)-3-methylphenyl)-N-(4,4-dimethyl-4,5-dihydrooxazol-2-yl) quinazoline-4,6-diamine]
Fo5 tumors [1]; [8]
  interferon-7 expression in CD4+ effector memory T cell subset: increased
  interferon-7 expression in CD8+ effector memory T cell subset: increased
Fo5 tumors [1]; [9]
  PD-1+ expression in CD8+ effector memory T cells: increased
  granzyme B expression in CD8+ effector memory T cells: increased
Fo5 tumors [1]; tucatinib 50 mg/kg orally once daily, 10-14 days, vs vehicle, FIG. 1A
  infiltration of CD8+ T cells expressing PD-1 in the tumor: increase
Fo5 tumors [1]; tucatinib 50 mg/kg orally once daily, 10-14 days, vs vehicle, FIG. 1B
  infiltration of CD8+ T cells expressing IFNγ in the tumor: increase
Fo5 tumors [1]; tucatinib 50 mg/kg orally once daily, 10-14 days, vs vehicle, FIG. 1C
  infiltration of CD8+ T cells expressing FOXP3 in the tumor: increase
Fo5 tumors [1]; tucatinib 50 mg/kg orally once daily, 10-14 days, vs vehicle, FIG. 1D
  CD4+ to CD8+ T cell ratio in the tumor: moderate increase
H2N113 tumors [2]; [10]
  CD8+ effector memory (CD44+CD62L−) T cell frequency as a percentage of total CD8+: increased
  PD-1+ expression of CD8+ effector memory T cells: significantly higher
  TIM3+ expression of CD8+ effector memory T cells: significantly higher
H2N113 tumors [2]; Example 4, after 14 days of tucatinib treatment vs vehicle
  CD8+ proportion: increased
H2N113 tumors [2]; Example 4, day 14, FIG. 13A
  expression of Ki67 in CD8+ effector memory T cells: increased expression
H2N113 tumors [2]; Example 4, day 14, FIG. 13B
  interferon-7 expression in CD8+ effector memory T cells compared to vehicle treated controls: significantly greater
H2N113 tumors [2]; Example 4, day 14, FIG. 14
  CD49b+ natural killer cell population proportion of CD45+CD3− lymphocytes: significantly increased
H2N113 tumors [2]; [11]
  CD103+ dendritic cells: significant increase
  MHC II+ macrophages: significant increase
  granulocytic MDSC as proportion of CD45.2+ lymphocytes: significant decrease
  neutrophils (CD11c-F4/80-CD11b+Ly6G+Ly6C+) as proportion of CD45.2+ lymphocytes: significant decrease
  suppressive MHC II low macrophages as proportion of CD45.2+ lymphocytes: significant decrease
H2N113 tumors [2]; Example 4, tucatinib vs vehicle treated TILs, FIG. 15A-15B
  PD-L1 expression on CD45+ cells (total TILs): increased intensity
H2N113 tumors [2]; tucatinib 100 mg/kg orally once daily, 14 days
  infiltration of natural killer (NK) cells in the tumor: increase
H2N113 tumors [2]; tucatinib 100 mg/kg orally once daily, 14 days, vs vehicle, FIG. 2A
  infiltration of CD8+ T cells in the tumor: increase
H2N113 tumors [2]; tucatinib 100 mg/kg orally once daily, 14 days, FIG. 2B
  infiltration of CD4+ T cells not expressing FOXP3 in the tumor: increase
H2N113 tumors [2]; tucatinib 100 mg/kg orally once daily, 14 days, FIG. 2C
  infiltration of CD4+ T cells expressing FOXP3 in the tumor: increase
H2N113 tumors [2]; tucatinib 100 mg/kg orally once daily, 14 days, FIG. 2D
  infiltration of CD8+ T cells expressing Ki67 in the tumor: increase
H2N113 tumors [2]; tucatinib 100 mg/kg orally once daily, 14 days, FIG. 2E
  infiltration of CD8+ T cells expressing IFNγ in the tumor: increase
H2N113 tumors [2]; tucatinib 100 mg/kg orally once daily, 14 days, FIG. 2F
  infiltration of CD8+ T cells expressing PD-1 in the tumor: increase
H2N113 tumors [2]; tucatinib 100 mg/kg orally once daily, 14 days, FIG. 2G
  infiltration of CD8+ T cells expressing OX40 in the tumor: increase
H2N113 tumors [2]; tucatinib 100 mg/kg orally once daily, 14 days, FIG. 2H
  infiltration of CD8+ T cells expressing TIM3 in the tumor: increase
H2N113 tumors [2]; tucatinib 100 mg/kg orally once daily, 14 days, FIG. 2J
  infiltration of neutrophils in the tumor: decrease
H2N113 tumors [2]; tucatinib 100 mg/kg orally once daily, 14 days, FIG. 2K
  percentage of CD11 b dendritic cells in the tumor: increase
H2N113 tumors [2]; [12]
  percentage of MHC-II high in the tumor: increase
  percentage of MHC-II low in the tumor: decrease
Fo5 tumors [3]; day 10 post treatment, differential gene expression, FIG. 21A-21D
  genes associated with favorable clinical response to checkpoint inhibitors: upregulation
Fo5 tumors [3]; day 10 post treatment, tucatinib 50 mg/kg vs vehicle, FIG. 17, 18A-18B
  genes related to immune cell function: significant upregulation
Fo5 tumors [3]; day 10 post treatment, tucatinib 50 mg/kg vs vehicle, FIG. 19, 20A-20B
  genes related to antigen presentation: significant upregulation
Fo5 tumors [3]; stranded polyA RNA sequencing, tucatinib vs vehicle, FIG. 3A, 3B
  expression of genes predictive of response to immunotherapy (IFNγ-related gene expression signature, expanded immune signature): increased expression
Fo5 tumors [4]; tucatinib 25, 50, 100 mg/kg orally once daily vs vehicle, p<0.05
  tumor growth: significantly inhibited tumor growth in a dose-dependent manner; also recorded: significant dose-dependent tumor growth inhibition
Fo5 tumors [4]; tucatinib at increasing doses vs vehicle, FIG. 9B
  survival: improved survival
H2N113 tumors [5]; tucatinib at increasing doses by oral gavage vs vehicle
  tumor growth: significant dose-dependent tumor growth inhibition
H2N113 tumors [5]; tucatinib at increasing doses vs vehicle, FIG. 8B
  survival: improved survival
BT474
  GI50 at 72 hours: nanomolar range
SKBR3
  GI50 at 72 hours: nanomolar range
H2N113
  GI50 at 72 hours: nanomolar range
HER2 signaling pathway [6]
  HER2 signaling pathway (phosphor-HER2 and total HER2): Inhibition of the HER2 signaling pathway
HER2 signaling pathway [7]
  HER2 signaling pathway (phosphor-HER2 and total HER2): Inhibition of the HER2 signaling pathway
HER2
  selectivity for HER2 compared to the closely related kinase EGFR: > 1000 fold
